Entries after “also recorded” stand apart in the source; their conditions may differ.
Key:
Langerin and DC-SIGN = details: cited from earlier work
DC-SIGN = details: stated in SI text, method and reference not given; cited from earlier work
LecA [1] = target: T1, LecA (Pseudomonas aeruginosa, UniProt Q05097); details: positive control in FP assay, unit inferred; cited from earlier work
T1 construct: made in house

15N LecA = target: T2, 15N LecA (Pseudomonas aeruginosa, UniProt Q05097); experiment: 1H-15N TROSY NMR with 15N LecA; type: binding
T2 construct: made in house
Procedure: (§1) The ^1H-^15N TROSY pulse sequence trosyf3gpphsi19 with 128 increments and 32 scans per increment was applied for 0.15 mM ^15N LecA and 0.07 mM LecB in HBS/Ca^2+ buffer (20 mM HEPES pH 7.4, 150 mM NaCl, 10 mM CaCl2, 10% D2O and 100 µM sodium trimethylsilylpropanesulfonate (DSS) as internal reference) at 310 K. The ^1H-^15N HSQC pulse sequence hsqcf3gpph19 with 128 increments and 8 scans per increment was applied for 0.1 mM ^15N DC-SIGN and Langerin CRD in HBS/Ca^2+ buffer at 298 K. For screening of 650 non-fluorinated fragments of the general library against ^15N LecA, a mix of 10 compounds at 1 mM each was combined with 0.15 mM ^15N LecA in HBS/Ca^2+ buffer (20 mM HEPES pH 7.4, 150 mM NaCl, 10 mM CaCl2, 10% D2O and 100 µM sodium trimethylsilylpropanesulfonate (DSS) as internal reference, whereas the fragments with the MBP scaffolds were validated separately at 1 mM. Similarly, 9 nonfluorinated fragments from the MBP library were screened against ^15N-labeled DC-SIGN, LecA and LecB. To validate the fragment binding to proteins, we recorded ^1H-^15N HSQC and TROSY NMR of proteins in the presence of DMSO as negative control and 2 mM fragments in HBS/Ca^2+ buffer. Natural ligands were used as positive controls at 1 mM MeGal, MeFuc and 30 mM D-mannose to LecA/LecB and DC-SIGN CRD/Langerin CRD, respectively. Titration experiments with ^15N-labeled DC-SIGN CRD or LecB were recorded in HBS/Ca^2+ buffer with 30 mM CaCl2 and 0.25 to 4–8 mM malonic acid derivatives. The Kd values were calculated according to the one-site-binding model in Origin(Pro) 2020b (OriginLab Corp., USA). Ligand efficiency calculations were done according to Eq. (1) for a temperature of 298 K and 310 K for DC-SIGN CRD and LecB, respectively.1 LE=RTlnKd/HA, with the temperature T [K], the gas constant R [kcal mol^−1 K^−1], and the number of non-hydrogen atoms HA[56].
(§2) All data were processed with NMRpipe[65] and analyzed with CcpNmr analysis. For data analysis, the protein fingerprint of ^15N DC-SIGN (Table S7) or Langerin CRD was assigned as reported previously. The ^1H-^15N TROSY resonances of ^15N LecA and ^15N LecB were indexed with IDs due to a lack of protein backbone resonance assignment (Tables S8-S9). Next, resonance IDs from protein spectra were transferred to the spectra obtained in the presence of compounds in order to compare the changes in chemical shift perturbations for the fast exchange peaks. The changes in chemical shift perturbations (CSPs) were calculated according to Eq. (2):2 △δ=1/2△δH2+α△δN^2 in which δ is the difference in chemical shift (in ppm) and α is an empirical weighting factor of 0.14 for all amino acid backbone resonances. The threshold value was set based on three independent measurements of reference spectra to 0.01 ppm for LecA, LecB, DC-SIGN CRD and Langerin CRD.

5FW LecA (PA-IL) = target: T3, 5FW LecA (PA-IL) (Pseudomonas aeruginosa, UniProt Q05097); experiment: PrOF NMR with 5-fluorotryptophan-labeled LecA; type: binding
T3 construct: made in house
Procedure: PrOF NMR was performed as reported previously. Briefly, 150 µM 5FW LecA was recorded alone and in the presence of DMSO or 2–4 mM compounds in TBS/Ca^2+ buffer. The difference in chemical shift perturbations of W42 in 5FW LecA free vs bound forms was followed to determine Kd values of compounds. The Kd values were calculated according to the one-site-binding model in Origin(Pro) 2020b (OriginLab Corp., USA) from two or three independent titrations. Ligand efficiency values were calculated according to Eq. (1) for a temperature of 310 K.

LecA [2] = target: T1, LecA; experiment: Competitive 19F T2-filtered NMR with reporter 5; type: binding; details: 0.1 mM 5, 10 mM CaCl2, 3 mM competitor
Procedure: The analogs of 1 (5) and 58 (61) were used as fluorinated spy molecules in ^19F T2-filtered NMR experiments. Two samples containing 0.1 mM 5 or 61 alone or a 10 µM protein in TBS/EDTA buffer followed by addition of 10 mM CaCl2 and the carbohydrates: 1 mM MeGal (LecA), 1 mM MeFuc (LecB/BambL) and 30 mM D-mannose (DC-SIGN/Langerin). Similarly, 0.1 mM 5 was used to prioritize hydroxamate derivatives, where 3 mM analogs of 1 were added to the samples instead of the carbohydrates. The ^19F and ^19F T2-filtered spectra were recorded with 64 scans, a spectral width of 5 ppm, a transmitter offset at −155.5 ppm (5) and −155.5 ppm (61), the acquisition time of 0.8 s, 2 s relaxation time applying a T2-filter of 384 ms. All spectra were analyzed as described above.

LecA [3] = target: T1, LecA; experiment: SPR with immobilized LecA; type: binding; details: compounds at 0.2 and 1 mM
Procedure: All experiments were performed on a BIACORE X100 instrument (GE Healthcare) at 25 °C in phosphate-buffered saline (10 mM phosphate buffer pH 7.4, 2.7 mM KCl, 137 mM NaCl, 0.05% Tween-20, 100 µM CaCl2, 5% DMSO). LecA was immobilized onto a CM7 chip (BIACORE) following standard amine coupling procedures. The CM7 chip was activated by three injections of a NHS/EDC mixture with a contact time of 540 s at a flow rate of 10 µL min^−1 until the response exceeded 800 RU, followed by multiple injections of LecA dissolved in 10 mM sodium acetate pH 4.5 (100 µg/mL) onto channel 2 (contact time of 540 s at a flow rate of 10 µL min^−1). A minimum of 10,000 RU of LecA was captured onto the chip. Initial binding screens were performed with the injections of 0.2 and 1 mM of each hydroxamate (association 30 s, dissociation 60 s, 30 µL min^−1 flow rate), to identify the initial binders eliciting dose-response behaviors. Injection of the positive control (0.1 mM 4-Nitrophenyl-β-D-galactoside) was included after every forth injection cycle to monitor the activity of immobilized LecA throughout the binding screen experiments. All data evaluation was performed using BIACORE X100 evaluation software (v.2.0).

LecB (PA-IIL) = target: T4, LecB (PA-IIL) (Pseudomonas aeruginosa, UniProt Q9HYN5); experiment: 1H-15N TROSY NMR with 15N LecB; type: binding
T4 construct: made in house
Procedure: as §1, with “Ligand efficiency calculations were done according to Eq. (1) for a temperature of 298 K and 310 K for DC-SIGN CRD and LecB, respectively.1 LE=RTlnKd/HA, with the temperature T [K], the gas constant R [kcal mol^−1 K^−1], and the number of non-hydrogen atoms HA[56].” left out
All data were processed with NMRpipe[65] and analyzed with CcpNmr analysis. […] The changes in chemical shift perturbations (CSPs) were calculated according to Eq. (2):2 △δ=1/2△δH2+α△δN^2 in which δ is the difference in chemical shift (in ppm) and α is an empirical weighting factor of 0.14 for all amino acid backbone resonances. […]

LecA [4] = target: T1, LecA; experiment: Competitive fluorescence polarization (FP) assay; type: binding; details: read-out: Inhibition in FP, compared to MeGal; measured at 4 mM (16 h)
Procedure: The FP assay was performed in a black 384-well plate (Greiner Bio-One, Germany, 781900) with the final volume of 20 µL as described previously. Briefly, 10 µL of a sample solution series (10–0.078 mM) in TBS buffer containing 10 mM Ca^2+ (TBS/Ca^2+-buffer) and 20% DMSO were added in technical triplicates to 10 µL LecA (40 µM) preincubated with a galactose-based Cy5 conjugate[68] (20 nM) in TBS/Ca^2+-buffer. […] The plate was sealed (EASYseal, Greiner Bio-One, 676,001), centrifuged (1 min, 1500 rpm, 25 °C) and incubated in a humidity chamber for 16 h. The fluorescence was measured with an excitation 590 nm and emission 675 nm filter[68] on a PheraStar FS plate reader (BMG Labtech GmbH, Germany). The blank signal of TBS/Ca^2+-buffer containing 10% DMSO was subtracted and the compounds were analyzed with the MARS Data Analysis Software (BMG Labtech GmbH Germany) using the four-parameter variable slope model. The top and bottom plateaus were defined according to the positive controls. The graphs were visualized using Graphpad Prism 5. The percentage (%) of inhibition was calculated at the highest concentration compared with 10 mM MeGal set to 100%.

DC-SIGN CRD (CD209) = target: T5, DC-SIGN CRD (CD209) (Homo sapiens, UniProt Q9NNX6); experiment: 1H-15N HSQC NMR with 15N DC-SIGN CRD; type: binding
T5 construct: the carbohydrate recognition domain (CRD) of DC-SIGN in ^1H-^15N HSQC/TROSY NMR experiments; made in house
T5 sequence (Q9NNX6 263-378 limits assumed): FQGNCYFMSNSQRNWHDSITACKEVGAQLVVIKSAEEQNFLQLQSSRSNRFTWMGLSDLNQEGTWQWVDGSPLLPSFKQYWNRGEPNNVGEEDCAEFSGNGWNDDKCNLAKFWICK
Procedure: as §1, §2

Raji cells = experiment: Cytotoxicity observed in cellFy; type: cell-based; details: at low concentrations; up to 10 mM
Procedure: (§3) The cellFy experiments using Langerin^+ and DC-SIGN^+ Raji cell lines were performed as described before. Briefly, 50k cells were plated in a 96-well plate (clear, round bottom; Greiner Bio-One and mixed with varying concentrations of malonates 58, D-mannose and 0.025 mg mL^−1 FITC-conjugated dextran (500 kDa, Sigma Aldrich) in a final volume of 50 µL following incubation for 30 min on ice. After centrifugation at 500 g for 3 min at 4 °C, the supernatant was discarded. After washing cells were treated with 50 µL 4 % paraformaldehyde (Roti-Histofix, Carl Roth) for 20 min on ice and resuspended in 100 µL fresh culture medium. The fluorescence of cells was measured by flow cytometry (MACSQuant Analyzer 16). Data was analyzed in FlowJo.

DC-SIGN^+ Raji cells = target: T6, DC-SIGN^+ Raji cells (Homo sapiens, UniProt Q9NNX6); experiment: cellFy cell-based assay, FITC-dextran binding by flow cytometry; details: D-mannose positive control
T6 construct: expressed in transfected cells; host or cells: Raji cells (DC-SIGN+)
T6 sequence (Q9NNX6 1-404): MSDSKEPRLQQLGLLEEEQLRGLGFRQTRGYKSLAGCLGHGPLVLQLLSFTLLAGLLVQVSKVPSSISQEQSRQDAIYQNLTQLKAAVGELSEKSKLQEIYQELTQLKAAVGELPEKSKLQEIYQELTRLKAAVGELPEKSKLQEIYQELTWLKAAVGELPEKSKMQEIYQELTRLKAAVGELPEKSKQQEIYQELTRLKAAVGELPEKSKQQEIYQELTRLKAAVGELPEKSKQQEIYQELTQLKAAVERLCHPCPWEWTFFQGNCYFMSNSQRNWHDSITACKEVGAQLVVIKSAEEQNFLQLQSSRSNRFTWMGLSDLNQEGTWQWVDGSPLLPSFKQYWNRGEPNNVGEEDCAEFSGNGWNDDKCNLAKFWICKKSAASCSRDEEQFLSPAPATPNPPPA
Procedure: as §3

LecA [5] = target: T1, LecA; details: carbohydrate ligand; cited from earlier work

T1 sequence (Q05097 whole entry): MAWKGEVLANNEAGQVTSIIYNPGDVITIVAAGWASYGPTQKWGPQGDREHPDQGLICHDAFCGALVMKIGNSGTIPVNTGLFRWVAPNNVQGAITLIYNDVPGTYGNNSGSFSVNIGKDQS
T2 sequence (Q05097 whole entry): as above
T3 sequence (Q05097 2-122): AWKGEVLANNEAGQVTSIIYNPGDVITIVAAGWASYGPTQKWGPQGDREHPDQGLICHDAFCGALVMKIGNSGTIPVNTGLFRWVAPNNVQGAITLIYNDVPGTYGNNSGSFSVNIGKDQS
T4 sequence (Q9HYN5 entry or part of it): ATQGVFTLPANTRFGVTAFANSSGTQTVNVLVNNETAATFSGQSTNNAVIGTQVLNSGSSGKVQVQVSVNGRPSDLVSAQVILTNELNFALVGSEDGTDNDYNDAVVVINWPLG

OC[C@H]1OC(O)[C@@H](O)[C@@H](O)[C@@H]1O (stereo partly drawn) [D-mannose]
Kd (Langerin and DC-SIGN): 3500 to 6100 µM
Kd (DC-SIGN): 3000 µM

CC(=O)N[C@H]1C(O)O[C@H](CO)[C@H](O)[C@@H]1O (stereo partly drawn) [GalNAc]
IC50 (LecA [1]): 1230 ± 200 µM

NC(C(=O)NO)c1ccccc1 (stereo not drawn) [compound 1]
total % of CSPs normalized to MeGal in 15N LecA (15N LecA; 2 mM compound, 1 mM MeGal): 40%
Kd (5FW LecA (PA-IL)): 7200 ± 1400 µM
LE (5FW LecA (PA-IL); ligand efficiency calculated from Kd for LecA, 310 K): 0.25 kcal mol^−1 HA^−1
competition of reporter 5 from LecA (recovery of 19F peak) (LecA [2]): did not displace
Efficiency in SPR (normalized binding response) (LecA [3]): 11.6%
binding to 15N LecB in TROSY NMR (LecB (PA-IIL); 2 mM compound): did not bind
inhibition at 4000 µM (LecA [4]): 6%

O=C(CCCCCCC(=O)Nc1ccccc1)NO [compound 47, reference compound]
binding to 15N LecA in TROSY NMR (15N LecA; 4 mM analogs of 1, 1 mM marketed hydroxamates): not tolerated; also recorded: none of the marketed metalloproteinase inhibitors (47, 49, 50) bound; also recorded: no binding
competition of reporter 5 from LecA (recovery of 19F peak) (LecA [2]): did not displace
Efficiency in SPR (normalized binding response) (LecA [3]): 3.8%

O=C(O)C(C(=O)O)C1CCC(F)(F)C1 (stereo not drawn) [compound 58]
binding to 5FW LecA (perturbation of W42) in PrOF NMR (5FW LecA (PA-IL); 2 mM compound): perturbed W42
W2 [ppm] (5FW LecA (PA-IL); 19F resonance of 0.15 mM 5FW LecA with 2 mM compound, DMSO 121.43): 121.47 ppm
W33 [ppm] (5FW LecA (PA-IL); 19F resonance of 0.15 mM 5FW LecA with 2 mM compound, DMSO 121.67): 121.77 ppm
W84 [ppm] (5FW LecA (PA-IL); 19F resonance of 0.15 mM 5FW LecA with 2 mM compound, DMSO 123.50): 123.53 ppm
Kd (DC-SIGN CRD (CD209); 15N DC-SIGN CRD, titration, one-site binding model, 30 mM CaCl2): 1200 ± 500 µM
LE (DC-SIGN CRD (CD209); ligand efficiency calculated from Kd for DC-SIGN CRD, 298 K): 0.28 kcal mol^−1 HA^−1
Kd (LecB (PA-IIL)): 1200 ± 400 µM
LE (LecB (PA-IIL); ligand efficiency calculated from Kd for LecB, 310 K): 0.29 kcal mol^−1 HA^−1
cytotoxicity (Raji cells): negligible cytotoxicity; also recorded: low cytotoxicity
inhibition of FITC-dextran binding / binding to DC-SIGN^+ cells (DC-SIGN^+ Raji cells): inhibited FITC-dextran binding to DC-SIGN similarly to D-mannose; also recorded: specifically bound to DC-SIGN^+ cells

OC[C@H]1O[C@H](O)[C@H](O)[C@@H](O)[C@H]1O [α-D-galactose]
Kd (LecA [5]): 50 µM

— article PMC9814205, “Targeting undruggable carbohydrate recognition sites through focused fragment library design” (Communications Chemistry, 2022)
